Experimental data: PMC7508628, “Targeting the Respiratory Syncytial Virus N^0-P Complex with Constrained α-Helical Peptides in Cells and Mice” (Antimicrobial Agents and Chemotherapy, 2020)
Where a SMILES comes first, the peptide text is derived from it. Bridges are numbered along the chain shown (N, C = ends). [ ]: non-standard residue; d: D form. R8 = C=CCCCCCC[C@@](C)(N)C(=O)O; R5 = C=CCCC[C@@](C)(N)C(=O)O; S5 = C=CCCC[C@](C)(N)C(=O)O

Assay: circular dichroism
Settings: 10 mM phosphate; pH 7.5; 25 °C; 50 uM

Structure (SMILES)	helicity [%]
CC[C@H](C)[C@H](NC(=O)[C@H](CO)NC(=O)[C@]1(C)CCCC=CCCC[C@@](C)(NC(=O)[C@@H](NC(=O)[C@H](C)NC(=O)[C@H](CCCCN)NC(=O)[C@H](CC(N)=O)NC(=O)[C@H](CC(N)=O)NC(=O)[C@H](C)NC(=O)[C@H](CC(=O)O)NC(=O)[C@H](CCC(=O)O)NC(C)=O)[C@@H](C)O)C(=O)N[C@@H](Cc2ccccc2)C(=O)N[C@@H](CC(C)C)C(=O)N1)C(=O)N[C@@H](CCCCN)C(=O)NCC(=O)N[C@@H](CCCCN)C(=O)N[C@@H](Cc1ccccc1)C(=O)N[C@@H](C)C(=O)N[C@@H](CO)C(N)=O (Ac-EDANNKAT[R5]FL[S5]SIKGKFAS-NH2; staple 9-12)	58.9

Assay: Circular dichroism spectroscopy, α-helical content
Assay type: physicochemical
Settings: CD, 10 mM phosphate buffer pH 7.5, 50 μM peptide, 25°C, calculated from ellipticity at 222 nm; average of three measurements
Protocol: The α-helical stabilization appeared to be higher for the i, i + 7 staples overall.
The circular dichroism spectra were acquired on a Chirascan spectropolarimeter. The samples were prepared in 10 mM phosphate buffer, pH 7.5, at a peptide concentration of 50 μM. Data were recorded at 25°C by step scan from 180 nm to 260 nm in a 0.5-mm-pathlength quartz cell using 0.2-nm-wavelength increments, a 1-nm bandwidth, and a response time of 1 s. Each spectrum was an average of three measurements and was subtracted from the buffer baseline. The data were converted to per residue molar ellipticity units (θ; in degrees · square centimeters · decimoles^−1 · number of residues^−1) and smoothed using Igor Pro software. Percent helicity was calculated as follows: (100 × CD222)/(C × N × {40,000 × [1 − (2.5/N)]}), where CD222 is the molar ellipticity (θ) at 222 nm (in millidegrees), N is the number of amino acids in the peptide, and C is the peptide molar concentration (in moles per liter).

Structure (SMILES)	% helicity [%]
CC[C@H](C)[C@H](NC(=O)[C@H](CO)NC(=O)[C@H](CCC(=O)O)NC(=O)[C@H](CC(C)C)NC(=O)[C@H](Cc1ccccc1)NC(=O)[C@]1(C)CCCC=CCCCCCC[C@@](C)(NC(=O)[C@H](CCC(=O)O)NC(=O)CNC(=O)[C@H](Cc2c[nH]cn2)NC(=O)[C@H](Cc2ccccc2)NC(=O)[C@H](CCC(=O)O)NC(C)=O)C(=O)N[C@@H](C)C(=O)N[C@@H](CC(N)=O)C(=O)N[C@@H](CC(N)=O)C(=O)N[C@@H](CCCCN)C(=O)N[C@@H](C)C(=O)N[C@@H]([C@@H](C)O)C(=O)N1)C(=O)N[C@@H](CCCCN)C(=O)NCC(=O)N[C@@H](CCCCN)C(=O)N[C@@H](Cc1ccccc1)C(=O)N[C@@H](C)C(=O)N[C@@H](CO)C(N)=O [4f] (Ac-EFHGE[R8]ANNKAT[S5]FLESIKGKFAS-NH2; staple 6-13)	17.2
CC[C@H](C)[C@H](NC(=O)[C@H](CO)NC(=O)[C@H](CCC(=O)O)NC(=O)[C@H](CC(C)C)NC(=O)[C@H](Cc1ccccc1)NC(=O)[C@]1(C)CCCC=CCCC[C@@](C)(NC(=O)[C@H](CC(N)=O)NC(=O)[C@H](CC(N)=O)NC(=O)[C@H](C)NC(=O)[C@H](CC(=O)O)NC(=O)[C@H](CCC(=O)O)NC(C)=O)C(=O)N[C@@H](C)C(=O)N[C@@H]([C@@H](C)O)C(=O)N1)C(=O)N[C@@H](CCCCN)C(=O)NCC(=O)N[C@@H](CCCCN)C(=O)N[C@@H](Cc1ccccc1)C(=O)N[C@@H](C)C(=O)N[C@@H](CO)C(N)=O [1b] (Ac-EDANN[R5]AT[S5]FLESIKGKFAS-NH2; staple 6-9)	11.5
CC[C@H](C)[C@H](NC(=O)[C@H](CO)NC(=O)[C@H](CCC(=O)O)NC(=O)[C@H](CC(C)C)NC(=O)[C@H](Cc1ccccc1)NC(=O)[C@H](CCCCN)NC(=O)[C@@H](NC(=O)[C@H](C)NC(=O)[C@]1(C)CCCC=CCCC[C@](C)(NC(=O)[C@H](CCC(=O)O)NC(=O)CNC(=O)[C@H](Cc2c[nH]cn2)NC(=O)[C@H](Cc2ccccc2)NC(=O)[C@H](CCC(=O)O)NC(C)=O)C(=O)N[C@@H](C)C(=O)N[C@@H](CC(N)=O)C(=O)N[C@@H](CC(N)=O)C(=O)N1)[C@@H](C)O)C(=O)N[C@@H](CCCCN)C(=O)NCC(=O)N[C@@H](CCCCN)C(=O)N[C@@H](Cc1ccccc1)C(=O)N[C@@H](C)C(=O)N[C@@H](CO)C(N)=O [4d] (Ac-EFHGE[S5]ANN[S5]ATKFLESIKGKFAS-NH2; staple 6-10)	28.0
CC[C@H](C)[C@H](NC(=O)[C@H](CO)NC(=O)[C@H](CCC(=O)O)NC(=O)[C@H](CC(C)C)NC(=O)[C@H](Cc1ccccc1)NC(=O)[C@H](CCCCN)NC(=O)[C@@H](NC(=O)[C@H](C)NC(=O)[C@H](CCCCN)NC(=O)[C@]1(C)CCCC=CCCC[C@@](C)(NC(=O)[C@H](CCC(=O)O)NC(=O)CNC(=O)[C@H](Cc2c[nH]cn2)NC(=O)[C@H](Cc2ccccc2)NC(=O)[C@H](CCC(=O)O)NC(C)=O)C(=O)N[C@@H](C)C(=O)N[C@@H](CC(N)=O)C(=O)N1)[C@@H](C)O)C(=O)N[C@@H](CCCCN)C(=O)NCC(=O)N[C@@H](CCCCN)C(=O)N[C@@H](Cc1ccccc1)C(=O)N[C@@H](C)C(=O)N[C@@H](CO)C(N)=O [4b] (Ac-EFHGE[R5]AN[S5]KATKFLESIKGKFAS-NH2; staple 6-9)	21.7
CC[C@H](C)[C@H](NC(=O)[C@]1(C)CCCCCCC=CCCCC2(CCCC=CCCCCCC[C@@](C)(NC(=O)[C@H](Cc3ccccc3)NC(=O)[C@H](CCC(=O)O)NC(C)=O)C(=O)NCC(=O)N[C@@H](CCC(=O)O)C(=O)N[C@@H](CC(=O)O)C(=O)N[C@@H](C)C(=O)N[C@@H](CC(N)=O)C(=O)N[C@@H](CC(N)=O)C(=O)N2)C(=O)N[C@@H](C)C(=O)N[C@@H]([C@@H](C)O)C(=O)N[C@@H](CCCCN)C(=O)N[C@@H](Cc2ccccc2)C(=O)N[C@@H](CC(C)C)C(=O)N[C@@H](CCC(=O)O)C(=O)N1)C(=O)N[C@@H](CCCCN)C(=O)NCC(=O)N[C@@H](CCCCN)C(=O)N[C@@H](Cc1ccccc1)C(=O)N[C@@H](C)C(=O)N[C@@H](CO)C(N)=O (stereo partly drawn) [4e3b]	51.1
CC[C@H](C)[C@@H]1NC(=O)[C@H](CO)NC(=O)[C@@](C)(NC(=O)[C@H](CC(C)C)NC(=O)[C@H](Cc2ccccc2)NC(=O)[C@H](CCCCN)NC(=O)[C@@H](NC(=O)[C@H](C)NC(=O)[C@H](CCCCN)NC(=O)[C@H](CC(N)=O)NC(=O)[C@H](CC(N)=O)NC(=O)[C@H](C)NC(=O)[C@H](CC(=O)O)NC(=O)[C@H](CCC(=O)O)NC(=O)CNC(=O)[C@H](Cc2c[nH]cn2)NC(=O)[C@H](Cc2ccccc2)NC(=O)[C@H](CCC(=O)O)NC(C)=O)[C@@H](C)O)CCCC=CCCCC2(CCCC=CCCC[C@@](C)(C(=O)N[C@@H](CO)C(N)=O)NC(=O)[C@H](Cc3ccccc3)NC(=O)[C@H](CCCCN)NC2=O)NC(=O)[C@H](CCCCN)NC1=O (stereo partly drawn) [2e1f]	27.0
CC[C@H](C)[C@H](NC(=O)[C@H](CO)NC(=O)[C@H](CCC(=O)O)NC(=O)[C@H](CC(C)C)NC(=O)[C@H](Cc1ccccc1)NC(=O)[C@H](CCCCN)NC(=O)[C@@H](NC(=O)[C@H](C)NC(=O)[C@]1(C)CCCC=CCCCCCC[C@@](C)(NC(=O)[C@H](Cc2ccccc2)NC(=O)[C@H](CCC(=O)O)NC(C)=O)C(=O)NCC(=O)N[C@@H](CCC(=O)O)C(=O)N[C@@H](CC(=O)O)C(=O)N[C@@H](C)C(=O)N[C@@H](CC(N)=O)C(=O)N[C@@H](CC(N)=O)C(=O)N1)[C@@H](C)O)C(=O)N[C@@H](CCCCN)C(=O)NCC(=O)N[C@@H](CCCCN)C(=O)N[C@@H](Cc1ccccc1)C(=O)N[C@@H](C)C(=O)N[C@@H](CO)C(N)=O [4e] (Ac-EF[R8]GEDANN[S5]ATKFLESIKGKFAS-NH2; staple 3-10)	28.8
CC[C@H](C)[C@H](NC(=O)[C@]1(C)CCCC=CCCCCCC[C@@](C)(NC(=O)[C@H](CC(N)=O)NC(=O)[C@H](CC(N)=O)NC(=O)[C@H](C)NC(=O)[C@H](CC(=O)O)NC(=O)[C@H](CCC(=O)O)NC(=O)CNC(=O)[C@H](Cc2c[nH]cn2)NC(=O)[C@H](Cc2ccccc2)NC(=O)[C@H](CCC(=O)O)NC(C)=O)C(=O)N[C@@H](C)C(=O)N[C@@H]([C@@H](C)O)C(=O)N[C@@H](CCCCN)C(=O)N[C@@H](Cc2ccccc2)C(=O)N[C@@H](CC(C)C)C(=O)N[C@@H](CCC(=O)O)C(=O)N1)C(=O)N[C@@H](CCCCN)C(=O)NCC(=O)N[C@@H](CCCCN)C(=O)N[C@@H](Cc1ccccc1)C(=O)N[C@@H](C)C(=O)N[C@@H](CO)C(N)=O [4g]	47.6
